row,Structure (SMILES),melting point
1,Cc1sc(-n2cccc2)c(C(=O)N2CCCC2)c1C,100 °C
2,CN1CCCc2cc(C=C3SC(=O)NC3=O)ccc21,254 to 257 °C
3,CS(=O)(=O)c1ccc(C2=C(c3ccc(F)cc3)CC3(CC3)C2)cc1,140 to 142 °C
4,COC(=O)Oc1c(Cl)cc(Cl)cc1[N+](=O)[O-],60 to 61 °C
5,COC(=O)CCOc1ccccc1CNC(=O)C1Cc2ccccc2N1S(=O)(=O)c1ccc(-c2cccc(C(F)(F)F)c2)cc1 (centres undefined),131 °C
6,CCOC(=O)CCCn1c(=O)[nH]c2ccccc21,88 °C
7,C#Cc1cccc(Nc2ncnc3ccc(S(=O)(=O)n4ccc(C=CC(=O)O)c4)cc23)c1,286 to 289 °C
8,COc1ccc2c(c1)C(C)(C)NC2=O,146 to 147 °C
9,Cc1cc(C2(c3ccc(Cl)cc3)OCCS2)ccc1NC(=O)c1cccc(I)c1C(=O)NC(C)C (centres undefined),214 to 217 °C
10,O=c1cc2c(nn1-c1ccc(Cl)cc1)-c1cnccc1CC2,166 to 168 °C
11,C=C(C)COc1ccc(C(=O)C=Cc2cccs2)c(O)c1,119 to 120 °C
12,CCOC(=O)N(N=C[N+](=O)[O-])c1ccc(C(=O)OC)c(S(=O)(=O)NC(C)(C)C)c1,142 to 145 °C
13,COc1cc2c(c(Cl)c1Cl)C(=O)C(C)(CC1CCCC1)C2 (centres undefined),75 to 77 °C
14,Cc1cc(C)cc(Oc2c(C(C)C)c(=O)[nH]c(=O)n2CC2CCCC2)c1,157 to 158 °C
15,CN(C)c1ccnc(N(C)C2CCN(CCCC(c3ccc(F)cc3)c3ccc(F)cc3)CC2)n1,106 °C
16,C=CC(=O)OCCCCCCOc1ccc(C(=O)OCCOCC2(c3ccccc3)C=CC=CC2C=Cc2ccc(OCCCCCC)cc2)cc1 (centres undefined),87 °C
17,CC(=O)Sc1cccs1,112 to 114 °C
18,CC1(C)CC(=C(c2ccc(O)cc2)c2ccc(OCCOCCO)cc2)CC(C)(C)C1,122 to 124 °C
19,CC(=O)c1cccc(C(=O)O)c1O,135 to 136 °C
20,CCCCC1(N(C)C)CC=C(c2[nH]c3ccccc3c2CCN2C(=O)c3ccccc3C2=O)CC1 (centres undefined),125 to 130 °C
21,O=C(Cc1ccncc1)Nc1cccc(-c2ccnc3c(C(=O)c4cccs4)cnn23)c1,130 to 131 °C
22,CC(C)C[C@@H](C=O)NC(=O)[C@H](Cc1c[nH]cn1)NC(=O)C(CCCCc1ccccc1)Cc1cccc2ccccc12 (some centres undefined),87 to 92 °C
23,O=C1OC(=O)c2c(-c3ccccc3)c3ccccc3c3cccc1c23,158 to 161 °C
24,O=C1CCC(N2C(=O)c3cccc(CNC(=O)c4ccc(Cl)c(Cl)c4)c3C2=O)C(=O)N1 (centres undefined),161 to 163 °C
25,CCCCCCCCCCN(O)C(=O)NCCC(=O)OC,77 to 78 °C

row,Structure (SMILES),melting point
1,Cc1cccc(C)c1CCCN1C(=O)c2ccccc2C1=O,92 to 93.5 °C
2,COc1ccc2c(c1)CCC1C2CCC2(C)C1CCC2N(C=O)CCN(C)C (centres undefined),98 to 100 °C
3,CC(C)[C@H](NC(=O)OCc1ccccc1)C(=O)NCCCNC(=O)[C@@H](NC(=O)OCc1ccccc1)C(C)C,211 to 212 °C
4,O=C(O)c1ccnc(-c2cccc3oc(Cc4cccc(C(F)(F)F)c4)cc23)c1,187 to 188 °C
5,CC1=Cc2ccsc2Sc2ccccc21,70 to 71 °C
6,COc1cc(OC)nc(NC(=O)NS(=O)(=O)c2ncccc2C(O)CF)n1 (centres undefined),119 to 120 °C
7,O=C(C=Cc1ccc(Cl)cc1)C=Cc1ccc(Cl)cc1,187 to 189 °C
8,O=C(O)c1ccc(-c2ccn(-c3ccc(C(F)(F)F)cc3)c2)cc1,315 to 317 °C
9,CNc1nc(-c2cccc(NC(=O)c3ccc(OC)c(Cl)c3)c2)c2cc(OC)c(OC)cc2n1,130 to 132 °C
10,CCCc1nc2c(N)nc3ccccc3c2n1CCCC(N)=O,249 to 251 °C
11,CC1(C)OCc2cc([C@@H](O)CN[C@H]3CCc4ccc(O)cc4C3)ccc2O1,156 to 158 °C
12,CCOC(=O)Cc1c(C(=O)CC)sc2[nH]c(C(=O)CC)cc12,147 to 148 °C
13,COc1ccc(C2C(C(=O)O)C2(C)C)cc1 (centres undefined),115 °C
14,N#Cc1sc(N)c(C#N)c1N1CCCCC1,183 to 184 °C
15,O=C(O)CS(=O)(=O)c1cccc(C(=O)C2CCC3(CCNCC3)CC2)c1,134 to 138 °C
16,Cc1cc(C)c2nc(CCCCl)n(-c3ccc(C(C(=O)O)C4CCCC4)cc3)c2n1 (centres undefined),214 °C
17,Cc1cc(-n2cnn(Cc3ccc(F)cc3)c2=O)sc1C(=O)NCc1ncco1,163 to 165 °C
18,CCCCOCCOc1ccc(-c2ccc(N3CCC(C)C3)c(C=CC(=O)O)c2)cc1 (centres undefined),136 to 139 °C
19,CC(=O)OC1CCC2(C)C(CCC3C4CCC(C(C)=O)C4(C)CC(O)C32Cl)C1 (centres undefined),175 to 179 °C
20,CC1(C)CN=C(NN=C(C=Cc2ccc(OC(F)(F)F)cc2)C=Cc2ccc(OC(F)(F)F)cc2)NC1,170 to 172 °C
21,CC(C)c1oc(-c2ccccc2)nc1CC(=O)O,141 to 143 °C
22,Cc1nc2c(c3c1[nH]c1cccc(F)c13)C(=O)CC(C)(C)C2,246 to 247 °C
23,COC(=O)COc1ccc([N+](=O)[O-])cc1,98 to 99 °C
24,CC1(C)CN(C(=O)c2cc3c(C(=O)OC(C)(C)C)ncn3c3ccc(Cl)cc23)CC(C)(C)N1,241 to 242 °C
25,CCOC(=O)c1c(N)sc(-c2ccc(OC)cc2)c1C,79 to 80 °C

row,Structure (SMILES),melting point
1,CCOC(=O)CN(C=C(C(=O)OCC)C(=O)OCC)N=Cc1ccccc1,105 to 106 °C
2,CCCCCCCC=C1SC(=S)N(N=c2sc3ccccc3s2)C1=O,185 °C
3,COC(=O)C1c2ccc(OCc3ccccc3)cc2CCN1CC(=O)N1CCC(c2ccccc2)CC1 (centres undefined),112 to 114 °C
4,OCc1cn(Cc2ccc(OCc3ccccc3)cc2)nc1-c1ccccc1,88 to 89 °C
5,OCCc1cc(C(O)CNCCCCCOCCCCc2ccccc2)ccc1O (centres undefined),65 to 67 °C
6,O=C(NC(Cl)C(Cl)(Cl)Cl)c1ccccc1O (centres undefined),113 to 114 °C
7,CCCNC(=O)C1(C/C=C/c2ccccc2)c2ccccc2-c2ccccc21,95 to 97 °C
8,N#CCc1cc(Br)cc(Cc2nc3c(F)c(F)cc(F)c3s2)c1,119 to 124 °C
9,COc1ccc(-c2cc(C(=O)NCc3ccccc3)c(=O)n(C)n2)cc1,145 to 146 °C
10,Cn1c(C=O)c(-c2ccc(F)cc2)c2ccccc21,75 to 79 °C
11,CS(=O)(=O)c1ccc(C2CC(=O)C(C(=O)c3ccc(Cl)cc3[N+](=O)[O-])C(=O)N2)cc1 (centres undefined),296 to 299 °C
12,COc1cccc(OC)c1-c1ccc(C[C@H](NC(=S)c2c(Cl)cccc2Cl)C(=O)O)cc1,180 °C
13,Cc1oc(-c2ccc(OCC(F)(F)F)cc2)nc1COc1ccc(CN(O)C(N)=O)cc1,159 to 161 °C
14,Cc1c(C2=NOC(CN3CCC(Cc4ccc(F)cc4)CC3)C2)cc2oc(=O)[nH]c2c1Cl (centres undefined),131 to 132 °C
15,O=CC1CCc2[nH]c3ccc(F)cc3c2C1 (centres undefined),96 to 98 °C
16,COC(=O)C1CN(C(=O)COc2ccccc2)c2ccccc2CN1S(=O)(=O)c1ccc(OC)cc1 (centres undefined),151 to 153 °C
17,CNC(=O)C(=NOC)c1cccc(Cl)c1COc1cc(C(F)(F)F)nc(OC(C)C)n1,116 to 118 °C
18,CCCOc1cc(OCCC)c2c(C)c(CCCl)c(=O)oc2c1,99 to 101 °C
19,O=C1CC(CCN2CCC(c3c[nH]c4ccccc34)CC2)c2ccccc2N1 (centres undefined),115 to 117 °C
20,CCOC(=O)c1cc2c(C=O)cc3c4ccccc4ccc3c2s1,196 to 197 °C
21,O=C(CBr)Nc1cc(F)c(F)cc1C(=O)O,177 to 180 °C
22,O=C(C(Cl)Cl)N1CCCCCCC1,83 °C
23,CCCc1nnc(-c2ccc([N+](=O)[O-])cc2)n1-c1ccc(OC)cc1,140 °C
24,CC(=O)c1ccc(S(=O)(=O)NCCCn2ccnc2)cc1,142 to 144 °C
25,CC(Cc1cc(F)cc2c(Cl)coc12)NC(=O)OC(C)(C)C (centres undefined),127 to 129 °C

row,Structure (SMILES),melting point
1,COc1cc(OCc2ccccn2)ccc1/C=C/c1cc(/C=C/c2ccc3[nH]ccc3c2)n[nH]1,98 to 104 °C
2,O=C(O)c1cccnc1Nc1cccc(Cl)c1,197 to 199 °C
3,Cc1oc2ccccc2c1C(=O)NCc1ccc2c(Br)c(O)ccc2c1,179 to 181 °C
4,CC(C#CCOc1ccccc1)N(O)C(N)=O (centres undefined),75 to 77 °C
5,COC(=O)/C=C/c1ccc(-c2ccc(C(C)C)cc2)s1,117 to 119 °C
6,CC(=O)C(Cl)=NNc1cccc(C)c1,144 to 146 °C
7,COC(=O)CSCCCCN(c1cnc(-c2ccccc2)c(-c2ccccc2)n1)C(C)C,64 to 67 °C
8,COc1cc2c(cc1OC)CN(CCc1ccc([N+](=O)[O-])cc1)CC2,118 to 119 °C
9,CCOC(=O)c1cn(Cc2ccc(OCc3nc(-c4ccccc4)oc3C)cc2)nc1O,152 to 153 °C
10,CCCC(=O)c1cc2c(=O)cc(C(=O)O)[nH]c2cc1C,255 to 258 °C
11,CNC(=O)c1cccc2cccc(NC(=O)c3ccc(F)c(F)c3)c12,> 250 °C
12,Cc1nc(NC(=N)N)sc1C(=O)Nc1cccc(OCC(=O)OC(C)(C)C)c1,204 °C
13,CC12CCCc3c1n(c1ccccc31)C(=O)CC2 (centres undefined),93 to 95 °C
14,C=CCN1C(=O)COc2cc(F)c(N)cc21,171 to 172 °C
15,CCc1nc(/C=C/c2cn(-c3ccccc3)nc2OCc2ccc(OCc3nc(-c4cccc(CC(=O)O)c4)oc3C)c(OC)c2)cs1,154 to 155 °C
16,COc1cc(OC)cc(C(=O)NC(NC(=NC#N)Nc2ccc(Cl)nc2)C(C)(Cl)Cl)c1 (centres undefined),193 to 195 °C
17,O=c1[nH]c2sc(Cl)c(C3CC3)c2[nH]c1=O,> 260 °C
18,CCc1cc(C(C)(C)c2ccc(C(C)(C)c3cc(CC)c(NC)c(CC)c3)cc2)cc(CC)c1NC,105 to 108 °C
19,CCCN(Cc1ccc(-c2ccccc2-c2nnn[nH]2)cc1)c1nc(OCc2ccccc2)ccc1C(=O)O,68 to 82 °C
20,CN(C)C(=O)Nc1ccc(Cl)c(N)n1,139 to 141 °C
21,O=[N+]([O-])C(F)(CO)CO,86 to 87 °C
22,CCCCCCC(Cc1ccc(OCCN2CCCCCC2)cc1)(C(=O)NO)S(=O)(=O)c1ccc(OC)cc1 (centres undefined),65 °C
23,Cc1c(F)c(F)c(F)c2c1c(=O)c(C(=O)O)cn2CCO,244 to 247 °C
24,CC(C)(C)OC(=O)N1CCN(CCc2ccc(Nc3ncc4c(n3)-c3ccccc3C(c3ccccc3C(F)(F)F)C4)cc2)CC1 (centres undefined),234 to 235 °C
